These results are taken from patent US10624947B2, “Bactericidal peptides and uses thereof” (INDIANA UNIVERSITY RESEARCH AND TECHNOLOGY CORPORATION, priority 2016, dated 2020).

The test system of data set [1] is Klebsiella pneumoniae. The following applies: for MIC: Table 5.
Experimental: (§1) Antimicrobial activity was determined using the broth microdilution method based on the general recommendation of the Clinical and Laboratory Standards Institute. Bacteria were grown in Mueller-Hinton broth at 37° C. until OD625 reached 0.06, and then bacteria were further diluted into 1:20 for later use. […] 10 microliter (μL) of diluted bacteria was mixed with 90 μL of peptides at varying concentrations followed by incubation at 37° C. for 16-18 hours. The MIC is the lowest peptide concentration at which visible growth was inhibited. The MIC value was determined at least twice in independent experiments and typically in 3-4 assays.
For data set [2], the system named is Escherichia coli.
Experimental: as §1
Data set [3] concerns Serratia marcescens.
Experimental: as §1
Data set [4] relates to Enterobacter cloacae.
Experimental: as §1
Data set [5] relates to Pseudomonas aeruginosa. It is filed as cell-based.
Experimental: as §1
The test system of data set [6] is human red blood cells (hRBCs). Kind of data set: Hemolytic activity. It is filed as cell-based.
Experimental: The amount of hemoglobin released was measured by the absorbance at 435 nm after a 60-minute incubation with the antimicrobial peptide. The percentage of hRBC lysis was normalized to the amount hemoglobin released by the suspension of the hRBCs in deionized water. The background amount of hRBC lysis was determined by adding phosphate buffered saline (PBS) at the same volume as 8 μM of the peptide to the hRBC for 1 h.
The hemolytic activities of peptides were determined using human red blood cells (hRBCs) (Innovative Research, Inc., cat. # IPLA-WB3-18103). The hRBCs were washed three times with PBS and then resuspended in PBS. The hRBCs solution was mixed with serial dilutions of the peptides in PBS buffer. The reaction mixtures were incubated for 45 min at 37° C. After centrifugation at 94×g for 10 min, the intact hRBCs were pelleted and the hemoglobin released from hRBCs was monitored by measuring the absorbance of the supernatant at 415 nm. The background level of absorbance was measured in sampled incubated with only PBS buffer. 100% hemolysis was determined in sampled incubated with water. The percentage of hemolysis was calculated according to the following equation. Percentage of hemolysis=[(Asample−Ablank)/Awater]*100%
Mammalian cells are thought to be less susceptible to cathelicidin peptides in part because the composition of their membrane will be less likely to interact with the peptides. To address this directly, human red blood cells (hRBCs) were tested for lysis after a 45-minute incubation with the peptides. The total lysis of hRBCs was determined by adding water to the cells. The amount of lysis during handling was determined by the addition of phosphate buffered saline at the same volume as that of the peptides.
Data set [7] has as its system Cultured human cells. The data set is described as follows: MTT cytotoxicity assay. It is filed as cell-based. On the technique in general: Tetrazolium assays rely on reduction of a dye to a coloured formazan, in cell work by metabolically active cells.
The test system of data set [8] is Klebsiella pneumoniae. The data set is described as follows: microbe, parasite or virus in culture.
Experimental: as §1
Setting [9] is: Table 8, clinical isolate 88 (NDM1+).
Where [10] appears, read: Table 8, clinical isolate 262 (NDM1+).
The mark [11] stands for this setting: Table 11, clinical isolate 88 (NDM1+).
[12] abbreviates: Table 11, clinical isolate 262 (NDM1+).
Where [13] appears, read: Table 11, clinical isolate 110113.

Converted amounts (≈) assume the structure as drawn. Like-named read-outs stand apart in the source and are kept apart here. Ends that are not written are not given here.

With Colistin sulfate [reference compound], the MIC was greater than 32 µM in data set [1] (Klebsiella pneumonia 27, Carbapenem resistant); 4 µM in data set [1] (Klebsiella pneumonia 49, Carbapenem resistant); 2 µM in data set [1] (Klebsiella pneumonia 83, Carbapenem resistant); 2 µM in data set [1] (Klebsiella pneumonia 84, Carbapenem resistant); 16 µM in data set [1] (Klebsiella pneumonia 88, Carbapenem resistant (NDM1+)); 16 µM in data set [1] (Klebsiella pneumonia 262, Carbapenem resistant (NDM1+)). In addition, in data set [2] (Table 5, Escherichia coli ATCC25922, antibiotic resistance none), the MIC amounted to 1 µM.
`CC[C@H](C)[C@H](NC(=O)[C@H](CCCCN)NC(=O)[C@H](CCC(=O)O)NC(=O)[C@H](CCCCN)NC(=O)[C@H](CO)NC(=O)[C@H](CCCCN)NC(=O)[C@H](CCCNC(=N)N)NC(=O)[C@H](Cc1ccccc1)NC(=O)[C@H](Cc1ccccc1)NC(=O)[C@H](CC(=O)O)NC(=O)CNC(=O)[C@H](CC(C)C)NC(=O)[C@@H](N)CC(C)C)C(=O)NCC(=O)N[C@@H](CCCCN)C(=O)N[C@@H](CCC(=O)O)C(=O)N[C@@H](Cc1ccccc1)C(=O)N[C@@H](CCCCN)C(=O)N[C@@H](CCCNC(=N)N)C(=O)N[C@H](C(=O)N[C@H](C(=O)N[C@@H](CCC(N)=O)C(=O)N[C@@H](CCCNC(=N)N)C(=O)N[C@H](C(=O)N[C@@H](CCCCN)C(=O)N[C@@H](CC(=O)O)C(=O)N[C@@H](Cc1ccccc1)C(=O)N[C@@H](CC(C)C)C(=O)N[C@@H](CCCNC(=N)N)C(=O)N[C@@H](CC(N)=O)C(=O)N[C@@H](CC(C)C)C(=O)N[C@H](C(=O)N1CCC[C@H]1C(=O)N[C@@H](CCCNC(=N)N)C(=O)N[C@H](C(=O)N[C@@H](CCC(=O)O)C(=O)N[C@@H](CO)C(=O)O)[C@@H](C)O)C(C)C)[C@@H](C)CC)C(C)C)[C@@H](C)CC` [LL-37, reference compound]: the Minimal inhibitory concentration is greater than 32 µg/mL in data set [3] (S. marcescens 4101); greater than 32 µg/mL in data set [3] (S. marcescens 4104); greater than 32 µg/mL in data set [3] (S. marcescens 7553); greater than 32 µM in data set [3] (Table 10, Serratia marcescens 4075A); greater than 32 µM in data set [3] (Table 10, Serratia marcescens 4101); greater than 32 µM in data set [3] (Table 10, Serratia marcescens 4104). Moreover, the Minimal inhibitory concentration in data set [1] (K. pneumoniae 4110) is greater than 32 µg/mL; in data set [1] (K. pneumoniae ATCC 700603), greater than 32 µg/mL; in data set [1] (K. pneumoniae C2) it was greater than 32 µg/mL; in data set [1] (K. pneumoniae OC8893), greater than 32 µg/mL; in data set [1] (Table 10, Klebsiella pneumonia ATCC 700603), greater than 32 µM; in data set [1] (Table 10, Klebsiella pneumonia C2), greater than 32 µM. The Minimal inhibitory concentration in data set [1] (Table 10, Klebsiella pneumonia OC4110) was greater than 32 µM; in data set [1] (Table 10, Klebsiella pneumonia OC8893), greater than 32 µM; in data set [2] (E. coli 4075), greater than 32 µg/mL; in data set [2] (E. coli J53 AzideR), greater than 32 µg/mL; in data set [2] (E. coli MC4100) it was greater than 32 µg/mL; in data set [2] (Table 10, Escherichia coli ATCC 25922), 32 µM. In addition, the Minimal inhibitory concentration in data set [2] (Table 10, Escherichia coli ATCC 35218) is 32 µM; in data set [2] (Table 10, Escherichia coli IU342), 32 µM; in data set [2] (Table 10, Escherichia coli J53 AzideR), greater than 32 µM; in data set [2] (Table 10, Escherichia coli MC4100a) it was greater than 32 µM; in data set [2] (Table 10, Escherichia coli OC4075), greater than 32 µM; in data set [2] (Table 10, Escherichia coli UT189) it was greater than 32 µM. For the same compound, the Minimal inhibitory concentration is greater than 32 µg/mL in data set [4] (E. cloacae 4092); 32 µM in data set [4] (Table 10, Enterobacter cloacae OC4080); greater than 32 µM in data set [4] (Table 10, Enterobacter cloacae OC4092); greater than 32 µg/mL in data set [5] (P. aeruginosa ATCC 27853); greater than 32 µM in data set [5] (Table 10, Pseudomonas aeruginosa ATCC 27853); greater than 32 µM in data set [5] (Table 10, Pseudomonas aeruginosa OC4083). For the same compound, the Minimal inhibitory concentration in data set [5] (Table 10, Pseudomonas aeruginosa PAO1) came to 32 µM; in data set [5] (Table 10, Pseudomonas aeruginosa PAO1 oprD), 32 µM. Also, the “Hemoglobin release from hRBCs” value in data set [6] (2 micromolar, 45-minute incubation (FIG. 17)) is on record as “a low abundance of hemoglobin outside of the cells was detected”. Also, the hRBC lysis entry in data set [6] (2 to 8 μM (FIG. 15)) is given as “lysed hRBC when present at 4 or 8 μM”. For the same compound, in data set [6] (LL-37 beyond 10 micromolar, B22a up to 60 micromolar (FIG. 18)), the “hRBC lysis with increasing concentration” value is “significantly higher hRBC lysis”. Also, in data set [7] (cultured human cells, compared to controls), the “Cytotoxicity, MTT assay” value was “no increased cytotoxicity compared to the controls”.
With GRAKRLRKKLKKLAKKLSPVIPLLHLG [BMAP-27C], the Minimal inhibitory concentration in data set [2] turned out to be 32 µg/mL; in data set [2] (E. coli ATCC 35218), 4 µg/mL. For the same compound, the RBC lysis result in data set [6] is given as “decreased RBC lysis compared to the control H2O”. The “Cytotoxicity, MTT assay” value in data set [7] is recorded as “no increased cytotoxicity compared to the controls”.
GRFKRLRKKFKKLFKKLSPVIPLLHLG [BMAP-27A]: the Minimal inhibitory concentration amounted to 8 µg/mL in data set [2], 2 µg/mL in data set [2] (E. coli ATCC 25922), 2 µg/mL in data set [2] (E. coli ATCC 35218) and 2 µg/mL in data set [2] (E. coli IU0342). In addition, in data set [6], the RBC lysis result was “decreased RBC lysis compared to the control H2O”. In addition, the “Cytotoxicity, MTT assay” value in data set [7] is reported as “no increased cytotoxicity compared to the controls”.
Compound “GRFKRFRKKFKKLFKKLSPVIPLLHLG [BMAP-27, reference compound]” displayed a Minimal inhibitory concentration in data set [2] of 8 µg/mL. The RBC lysis entry in data set [6] is reported as “decreased RBC lysis compared to the control H2O”. Further, the “Cytotoxicity, MTT assay” value in data set [7] is on record as “no increased cytotoxicity compared to the controls”.
As for `C[C@@H](O)[C@H]1C(=O)N2C(C(=O)O)=C(S[C@@H]3CN[C@H](C(=O)N(C)C)C3)[C@H](C)[C@H]12` [Meropenem], the MIC in data set [8] (setting [9]) is greater than 16 µg/mL; in data set [8] (Table 8, clinical isolate 92), greater than 16 µg/mL; in data set [8] (Table 8, clinical isolate 109), greater than 16 µg/mL; in data set [8] (Table 8, clinical isolate 113), greater than 16 µg/mL; in data set [8] (Table 8, clinical isolate 116), greater than 16 µg/mL; in data set [8] (Table 8, clinical isolate 118) it was greater than 16 µg/mL. Moreover, the MIC is greater than 16 µg/mL in data set [8] (Table 8, clinical isolate 136); greater than 32 µg/mL in data set [8] (Table 8, clinical isolate 170); 4 µg/mL (≈ 10.4 µM) in data set [8] (Table 8, clinical isolate 256); greater than 6 µg/mL in data set [8] (setting [10]); greater than 64 µg/mL in data set [8] (Table 8, clinical isolate 265); greater than 64 µg/mL in data set [8] (Table 8, clinical isolate 280). Moreover, the MIC in data set [8] (Table 8, clinical isolate 281) is greater than 64 µg/mL; in data set [8] (Table 8, clinical isolate 284), greater than 64 µg/mL; in data set [8] (Table 8, clinical isolate 286), greater than 64 µg/mL; in data set [8] (Table 8, clinical isolate 328) it was greater than 16 µg/mL; in data set [8] (Table 8, clinical isolate 330) it was greater than 16 µg/mL; in data set [8] (Table 8, clinical isolate 361), greater than 16 µg/mL. The MIC in data set [8] (Table 8, clinical isolate 365) was greater than 16 µg/mL; in data set [8] (Table 8, clinical isolate 399) it was greater than 16 µg/mL; in data set [8] (setting [11]), greater than 16 µg/mL; in data set [8] (Table 11, clinical isolate 92), greater than 16 µg/mL; in data set [8] (Table 11, clinical isolate 116), greater than 16 µg/mL; in data set [8] (Table 11, clinical isolate 118) it was greater than 16 µg/mL. Besides, the MIC in data set [8] (Table 11, clinical isolate 136) is greater than 16 µg/mL; in data set [8] (Table 11, clinical isolate 170) it was greater than 32 µg/mL; in data set [8] (Table 11, clinical isolate 256), 4 µg/mL (≈ 10.4 µM); in data set [8] (setting [12]), no less than 64 µg/mL; in data set [8] (Table 11, clinical isolate 265) it was no less than 64 µg/mL; in data set [8] (Table 11, clinical isolate 280), no less than 64 µg/mL. Moreover, the MIC in data set [8] (Table 11, clinical isolate 281) is greater than 64 µg/mL; in data set [8] (Table 11, clinical isolate 284) it was no less than 64 µg/mL; in data set [8] (Table 11, clinical isolate 286), no less than 64 µg/mL; in data set [8] (Table 11, clinical isolate 328) it was no less than 16 µg/mL; in data set [8] (Table 11, clinical isolate 330), no less than 16 µg/mL; in data set [8] (Table 11, clinical isolate 361) it was no less than 16 µg/mL. Further, the MIC in data set [8] (Table 11, clinical isolate 365) was no less than 16 µg/mL; in data set [8] (Table 11, clinical isolate 399), no less than 16 µg/mL; in data set [8] (setting [13]) it was greater than 16 µg/mL.
Regarding `C[C@@H](O)[C@H]1C(=O)N2C(C(=O)O)=C(SCCN=CN)C[C@H]12` [Imipenem], the MIC in data set [8] (setting [9]) was 16 µg/mL (≈ 53.4 µM); in data set [8] (Table 8, clinical isolate 92) it was greater than 64 µg/mL; in data set [8] (Table 8, clinical isolate 109) it was 16 µg/mL (≈ 53.4 µM); in data set [8] (Table 8, clinical isolate 113), 16 µg/mL (≈ 53.4 µM); in data set [8] (Table 8, clinical isolate 116) it was 8 µg/mL (≈ 26.7 µM); in data set [8] (Table 8, clinical isolate 118), 32 µg/mL (≈ 107 µM). The MIC in data set [8] (Table 8, clinical isolate 136) is 8 µg/mL (≈ 26.7 µM); in data set [8] (Table 8, clinical isolate 256) it was no less than 16 µg/mL; in data set [8] (setting [10]), greater than 16 µg/mL; in data set [8] (Table 8, clinical isolate 265), 48 µg/mL (≈ 160 µM); in data set [8] (Table 8, clinical isolate 280) it was no less than 16 µg/mL; in data set [8] (Table 8, clinical isolate 281), 4 µg/mL (≈ 13.4 µM). Besides, the MIC was 8 µg/mL (≈ 26.7 µM) in data set [8] (Table 8, clinical isolate 284); no less than 16 µg/mL in data set [8] (Table 8, clinical isolate 286); 4 µg/mL (≈ 13.4 µM) in data set [8] (Table 8, clinical isolate 330); greater than 16 µg/mL in data set [8] (Table 8, clinical isolate 361); 16 µg/mL (≈ 53.4 µM) in data set [8] (setting [11]); greater than 64 µg/mL in data set [8] (Table 11, clinical isolate 92). Moreover, the MIC in data set [8] (Table 11, clinical isolate 116) was 8 µg/mL (≈ 26.7 µM); in data set [8] (Table 11, clinical isolate 118), 32 µg/mL (≈ 107 µM); in data set [8] (Table 11, clinical isolate 136), 8 µg/mL (≈ 26.7 µM); in data set [8] (Table 11, clinical isolate 256) it was no less than 16 µg/mL; in data set [8] (setting [12]) it was greater than 16 µg/mL; in data set [8] (Table 11, clinical isolate 265), 48 µg/mL (≈ 160 µM). Moreover, the MIC is no less than 16 µg/mL in data set [8] (Table 11, clinical isolate 280); 4 µg/mL (≈ 13.4 µM) in data set [8] (Table 11, clinical isolate 281); 8 µg/mL (≈ 26.7 µM) in data set [8] (Table 11, clinical isolate 284); no less than 16 µg/mL in data set [8] (Table 11, clinical isolate 286); 4 µg/mL (≈ 13.4 µM) in data set [8] (Table 11, clinical isolate 330); greater than 16 µg/mL in data set [8] (Table 11, clinical isolate 361). Further, the MIC in data set [8] (Table 11, clinical isolate 10916) was greater than 16 µg/mL; in data set [8] (setting [13]), 16 µg/mL (≈ 53.4 µM).
